Patent US20240083857A1, “2-Methyl-Quinazolines” (Bayer Pharma Aktiengesellschaft, priority 2017, published 2024)

How the values were obtained:
[1] = target: K-Ras^G12C : hSOS1 interaction (Homo sapiens, UniProt Q07889); test: Biochemical assay 1: K-Ras^G12C interaction assay with hSOS1 (HTRF); format: binding; settings: for IC50: read-out: Assay 1 (KRAS-SOS Interaction) activity expressed as IC50; for inhibition at 20 µM: read-out: Assay 1 (KRAS-SOS Interaction) activity expressed as % inhibition at 20 μM
[2] = target: human SOS1 (nucleotide exchange of K-Ras^G12C) (Homo sapiens, UniProt Q07889); test: Biochemical assay 2: K-Ras^G12C activation assay by hSOS1 at high GTP concentration (HTRF); settings: high GTP; for IC50: read-out: Assay 2 (KRAS-Activation by SOS high GTP) activity expressed as IC50; for inhibition at 20 µM: read-out: Assay 2 (KRAS-Activation by SOS high GTP) activity expressed as % inhibition at 20 μM
[3] = target: human SOS1 (loading of human K-Ras^G12C-GDP with fluorescent GTP-analog) (Homo sapiens, UniProt Q07889); test: Biochemical assay 3: K-Ras^G12C activation assay by hSOS1 (HTRF); settings: no GTP; for IC50: read-out: Assay 3 (KRAS-Activation by SOS no GTP) activity expressed as IC50; for inhibition at 20 µM: read-out: Assay 3 (KRAS-Activation by SOS no GTP) activity expressed as % inhibition at 20 μM

Row | SMILES | IC50 [1] [nM] | IC50 [2] [nM] | IC50 [3] [nM] | inhibition at 20 µM [3] [%] | inhibition at 20 µM [1] [%] | inhibition at 20 µM [2] [%]
1 | COc1cc2nc(C)nc(N[C@@H](C)c3ccc(-c4csc5ccccc45)s3)c2cc1OC (racemic) [Example 154, N-{1-[5-(1-benzothiophen-3-yl)thiophen-2-yl]ethyl}-6,7-dimethoxy-2-methylquinazolin-4-amine] | 7820 | 8780 | 12900 |  |  | 
2 | CCC/C=C/c1ccc([C@H](C)Nc2nc(C)nc3cc(OC)c(OC)cc23)s1 (racemic) [Example 156, 6,7-dimethoxy-2-methyl-N-[1-{5-[(1E)-pent-1-en-1-yl]thiophen-2-yl}ethyl]quinazolin-4-amine] | 4120 | 5760 | 10800 |  |  | 
3 | CCCCOc1cccc(F)c1-c1cccc([C@@H](C)Nc2nc(C)nc3cc(OC)c(OC)cc23)c1 [Example 67, N-[(1R)-1-(2′-butoxy-6′-fluorobiphenyl-3-yl)ethyl]-6,7-dimethoxy-2-methylquinazolin-4-amine] | 9980 | 19600 |  | 54 |  | 
4 | COc1cc2nc(C)nc(N[C@@H](C)c3ccc(-c4cc(N)ccc4C)s3)c2cc1OC (racemic) [Example 146, N-{1-[5-(5-amino-2-methylphenyl)thiophen-2-yl]ethyl}-6,7-dimethoxy-2-methylquinazolin-4-amine] | 911 | 1500 | 1480 |  |  | 
5 | COc1cc2nc(C)nc(N[C@H](C)c3cccc(-c4ccc(N5CCOCC5)cc4)c3)c2cc1OC [Example 79, 6,7-dimethoxy-2-methyl-N-{(1R)-1-[4′-(morpholin-4-yl)biphenyl-3-yl]ethyl}quinazolin-4-amine] | 1550 | 937 | 1650 |  |  | 
6 | COCCNC(=O)CNCc1ccccc1-c1ccc(C(C)Nc2nc(C)nc3cc(OC)c(OC)cc23)s1 (stereo not drawn) [Example 283, 2-[2-(5-{1-[(6,7-dimethoxy-2-methylquinazolin-4-yl)amino]ethyl}thiophen-2-yl)benzyl]-N-(2-methoxyethyl)glycinamide] | 418 | 371 | 344 |  |  | 
7 | COc1cc2nc(C)nc(N[C@@H](C)c3ccc(-c4ccc(C(C)=O)s4)s3)c2cc1OC (racemic) [Example 162, 1-(5′-{1-[(6,7-dimethoxy-2-methylquinazolin-4-yl)amino]ethyl}-2,2′-bithiophen-5-yl)ethanone] | 8760 | 11600 | 16000 |  |  | 
8 | COc1cc2nc(C)nc(N[C@H](C)c3cccc(-c4cccc(OCc5ccccc5)c4)c3)c2cc1OC [Example 123, N-{(1R)-1-[3′-(benzyloxy)biphenyl-3-yl]ethyl}-6,7-dimethoxy-2-methylquinazolin-4-amine] |  | 13100 |  | 42 | 52 | 
9 | COc1cc2nc(C)nc(N[C@H](C)c3cccc(-c4ccc5c(ccn5C)c4)c3)c2cc1OC [Example 105, 6,7-dimethoxy-2-methyl-N-{(1R)-1-[3-{1-methyl-1H-indol-5-yl)phenyl]ethyl}quinazolin-4-amine] | 2400 | 1390 | 2770 |  |  | 
10 | COc1cc2nc(C)nc(NC(C)c3ccc(-c4ccccc4)o3)c2cc1OC (single isomer, unassigned) [Example 224, 6,7-dimethoxy-2-methyl-N-[1-(5-phenylfuran-2-yl)ethyl]quinazolin-4-amine, enantiomer] | 3600 | 2550 | 9370 |  |  | 
11 | COc1cc2nc(C)nc(N[C@@H](C)c3ccc(-c4cccc(S(N)(=O)=O)c4)s3)c2cc1OC (racemic) [Example 130, 3-(5-{1-[(6,7-dimethoxy-2-methylquinazolin-4-yl)amino]ethyl}thiophen-2-yl)benzenesulfonamide] | 3430 | 4310 | 11700 |  |  | 
12 | COc1cc2nc(C)nc(N[C@H](C)c3cccc(/C=C/Cc4ccccc4)c3)c2cc1OC [Example 78, 6,7-dimethoxy-2-methyl-N-[(1R)-1-{3-[(1E)-3-phenylprop-1-en-1-yl]phenyl}ethyl]quinazolin-4-amine] | 8550 |  |  | 31 |  | 45
13 | COc1cc2nc(C)nc(N[C@H](C)c3cccc(-c4ccoc4)c3)c2cc1OC [Example 86, N-{(1R)-1-[3-(furan-3-yl)phenyl]ethyl}-6,7-dimethoxy-2-methylquinazolin-4-amine] | 581 | 935 | 693 |  |  | 
14 | CCCCOc1cccc(F)c1-c1ccc([C@H](C)Nc2nc(C)nc3cc(OC)c(OC)cc23)s1 (stereo in doubt) [Example 136, N-{1-[5-(2-butoxy-6-fluorophenyl)thiophen-2-yl]ethyl}-6,7-dimethoxy-2-methylquinazolin-4-amine] |  |  |  | 18 | 37 | 20
15 | COc1cc2nc(C)nc(N[C@H](C)c3cccc(-c4cc(N)ccc4C)c3)c2cc1OC [Example 36, N-[(1R)-1-(5′-amino-2′-methylbiphenyl-3-yl)ethyl]-6,7-dimethoxy-2-methylquinazolin-4-amine] | 542 | 1000 | 696 |  |  | 
16 | COc1cc2nc(C)nc(N[C@@H](C)c3ccc(-c4ccccc4NC(C)=O)s3)c2cc1OC (racemic) [Example 166, N-[2-(5-{1-[(6,7-dimethoxy-2-methylquinazolin-4-yl)amino]ethyl}thiophen-2-yl)phenyl]acetamide] | 1800 | 3680 | 4990 |  |  | 
17 | COc1cc2nc(C)nc(N[C@H](C)c3cccc(-c4ccc(OCc5ccccc5)cc4)c3)c2cc1OC [Example 97, N-{(1R)-1-[4′-(benzyloxy)biphenyl-3-yl]ethyl}-6,7-dimethoxy-2-methylquinazolin-4-amine] |  |  |  | 38 | 39 | 28
18 | COc1cc2nc(C)nc(N[C@@H](C)c3ccc(-c4ccccc4OC(F)(F)F)s3)c2cc1OC (racemic) [Example 150, 6,7-dimethoxy-2-methyl-N-[1-{5-[2-(trifluoromethoxy)phenyl]thiophen-2-yl}ethyl]quinazolin-4-amine] | 7360 | 13200 | 13200 |  |  | 
19 | COc1cc2nc(C)nc(N[C@@H](C)c3ccc(/C=C/C4CC4)s3)c2cc1OC (racemic) [Example 132, N-[1-{5-[(E)-2-cyclopropylethenyl]thiophen-2-yl}ethyl]-6,7-dimethoxy-2-methylquinazolin-4-amine] | 6580 | 8050 |  | 46 |  | 
20 | COc1cc2nc(C)nc(N[C@@H](C)c3ccc(-c4cccc(OCC5CC5)c4)s3)c2cc1OC (stereo in doubt) [Example 170, N-[1-{5-[3-(cyclopropylmethoxy)phenyl]thiophen-2-yl}ethyl]-6,7-dimethoxy-2-methylquinazolin-4-amine] |  |  |  | 15 | 45 | 7
21 | COc1cc2nc(C)nc(N[C@H](C)c3cccc(-c4cccc(-c5nnc(C)o5)c4)c3)c2cc1OC [Example 55, 6,7-dimethoxy-2-methyl-N-{(1R)-1-[3′-(5-methyl-1,3,4-oxadiazol-2-yl)biphenyl-3-yl]ethyl}quinazolin-4-amine] | 674 | 629 | 724 |  |  | 
22 | COc1cc2nc(C)nc(NC(C)c3ccc(-c4ccccc4CNCC(N)=O)s3)c2cc1OC (stereo not drawn) [Example 279, 2-[2-(5-{1-[(6,7-dimethoxy-2-methylquinazolin-4-yl)amino]ethyl}thiophen-2-yl)-benzyl]glycinamide] | 176 | 168 | 160 |  |  | 
23 | COc1cc2nc(C)nc(NC(C)c3ccc(-c4ccccc4CNCC(=O)Nc4ccccc4)s3)c2cc1OC (stereo not drawn) [Example 289, 2-[2-(5-{1-[(6,7-dimethoxy-2-methylquinazolin-4-yl)amino]ethyl}thiophen-2-yl)benzyl]-N-phenylglycinamide] | 2110 | 1180 | 2730 |  |  | 
24 | COc1cc2nc(C)nc(N[C@H](C)c3cccc(-c4ccccc4S(C)(=O)=O)c3)c2cc1OC [Example 120, 6,7-dimethoxy-2-methyl-N-{(1R)-1-[2′-(methylsulfonyl)biphenyl-3-yl]ethyl}quinazolin-4-amine] | 1590 | 2020 | 3530 |  |  | 
25 | COc1cc2nc(C)nc(N[C@H](C)c3cccc(/C=C/C4CC4)c3)c2cc1OC [Example 63, N-[(1R)-1-{3-[(E)-2-cyclopropylethenyl]phenyl}ethyl]-6,7-dimethoxy-2-methylquinazolin-4-amine] | 1130 | 1800 | 1880 |  |  | 
26 | C/C=C(\C)c1ccc([C@H](C)Nc2nc(C)nc3cc(OC)c(OC)cc23)s1 (racemic) [Example 143, N-[1-{5-[(2E)-but-2-en-2-yl]thiophen-2-yl}ethyl]-6,7-dimethoxy-2-methylquinazolin-4-amine] | 7640 | 8760 | 17800 |  |  | 
27 | COc1cc2nc(C)nc(N[C@@H](C)c3ccc(-c4ccncc4C)s3)c2cc1OC (racemic) [Example 53, 6,7-dimethoxy-2-methyl-N-{1-[5-(3-methylpyridin-4-yl)thiophen-2-yl]ethyl}quinazolin-4-amine] | 669 | 1280 | 1080 |  |  | 
28 | COc1cc2nc(C)nc(N[C@H](C)c3cccc(-c4ccccc4NS(C)(=O)=O)c3)c2cc1OC [Example 121, N-(3′-{(1R)-1-[(6,7-dimethoxy-2-methylquinazolin-4-yl)amino]ethyl}biphenyl-2-yl)methanesulfonamide] | 452 | 679 | 791 |  |  | 
